According to patent US20260001928A1 (CORTERIA PHARMACEUTICALS, priority 2022, published 2026):
pEC50: −log10 of the molar value. *1 amine or outer side, *2 acyl side, *3 side chain or, on linkers, in order; H or OH if unused. Where a SMILES comes first, the peptide text is derived from it. Side-chain parts run from the residue outwards. [ ]: non-standard residue; d: D form. The star is where a group is joined. C20 diacid = O=C(O)CCCCCCCCCCCCCCCCCCC(=O)*; C18 diacid = O=C(O)CCCCCCCCCCCCCCCCC(=O)*; C16 diacid = O=C(O)CCCCCCCCCCCCCCC(=O)*; γGlu = O=C(O)[C@H](CCC(=O)[*:2])N[*:1]; NMeI = CC[C@H](C)[C@H](NC)C(=O)O; AEEA = NCCOCCOCC(=O)O; Aib = CC(C)(N)C(=O)O

Columns and labels:
[1] = Pharmacokinetics in male Sprague Dawley rats after subcutaneous administration; format: in vivo; conditions: plasma, rat, SC, 0.05 mg/kg
Experimental: The pharmacokinetics of UCN-2 derivatives was studied in male Sprague Dawley rats after subcutaneous administration (SC) at 0.05, 0.1, 0.3 or 1 mg/kg. Peptides were formulated as a solution in 10 mM phosphate pH 7.4 buffer+glycerol 85% (2.3% v/v)). […] The supernatant (200 μL) was analyzed by LC-MSMS. Pharmacokinetic parameters were calculated using established non-compartmental methods. The area under the plasma concentration curve versus time (AUC) was determined using Watson LIMS (version 7.6), with linear trapezoidal interpolation in the ascending slope and logarithmic trapezoidal interpolation in the descending slope. The portion of the AUC from the last measurable concentration to infinity was estimated from the equation, Ct/kel, where Ct represents the last measurable concentration and kel is the elimination rate constant. The latter was determined from the concentration curve versus time by linear regression at the terminal phase of the semi-logarithmic plot.

[2] = as above; format: in vivo; conditions: plasma, rat
human CRF2a receptor = target: T1, human CRF2a receptor (Homo sapiens, UniProt Q13324); assay: Activity at human CRF2a receptor, cAMP functional assay in TeloHEAC cells; format: cell-based; conditions: TeloHEAC cells stably expressing human CRF2a receptor, relative to urocortin 2 (100 nM = 100%)
T1 construct: expressed in transfected cells; host or cells: TeloHEAC cells
T1 sequence (Q13324 1-411): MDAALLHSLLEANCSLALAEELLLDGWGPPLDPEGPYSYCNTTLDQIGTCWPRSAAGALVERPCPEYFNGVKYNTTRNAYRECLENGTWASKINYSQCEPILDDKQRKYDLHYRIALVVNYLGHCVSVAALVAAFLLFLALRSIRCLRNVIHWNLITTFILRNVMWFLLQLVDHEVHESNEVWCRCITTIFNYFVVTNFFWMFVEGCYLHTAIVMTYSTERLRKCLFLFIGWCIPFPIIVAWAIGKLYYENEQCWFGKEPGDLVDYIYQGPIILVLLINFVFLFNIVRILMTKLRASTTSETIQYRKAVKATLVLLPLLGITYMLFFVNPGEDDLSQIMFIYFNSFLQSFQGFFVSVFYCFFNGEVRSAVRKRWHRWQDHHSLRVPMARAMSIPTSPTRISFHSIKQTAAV
Outline: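 TeloHEAC cells stably expressing human CRF2a (10000 cells/well, suspended in HBSS/20 mM HEPES with 2 mM IBMX) were exposed to compounds for 30 min at 37 °C. cAMP was read as the 665/620 nm fluorescence ratio after 1 h at room temperature. EC50 was derived relative to 100 nM urocortin 2, set as 100%.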

CFR1R receptor = target: T2, CFR1R receptor (Homo sapiens, UniProt P34998); assay: Activity at anti-target CFR1R receptor, cAMP assay in CRF1R-overexpression CHO-K1 cells; format: cell-based; conditions: 100% = Sauvagine at 100 nM; for pEC50: cAMP
T2 construct: host or cells: CHO-K1 (clone 2)
T2 sequence (P34998 24-415): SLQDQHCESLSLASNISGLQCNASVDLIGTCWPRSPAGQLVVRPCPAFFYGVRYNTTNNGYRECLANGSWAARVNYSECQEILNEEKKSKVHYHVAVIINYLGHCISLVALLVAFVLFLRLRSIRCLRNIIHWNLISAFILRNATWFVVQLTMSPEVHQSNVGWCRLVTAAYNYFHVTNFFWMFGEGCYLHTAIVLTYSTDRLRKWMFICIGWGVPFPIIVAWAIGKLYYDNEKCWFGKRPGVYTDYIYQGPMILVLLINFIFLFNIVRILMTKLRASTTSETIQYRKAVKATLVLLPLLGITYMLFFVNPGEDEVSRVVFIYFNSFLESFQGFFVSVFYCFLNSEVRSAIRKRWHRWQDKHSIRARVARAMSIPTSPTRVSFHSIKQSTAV
Outline: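 The method mirrors that used with TeloHAEC cells. Here, thawed clone 2 cells seeded at 4000 cells/well are tested, and 100 nM Sauvagine sets the top of the activation scale.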

[3] = Chemical stability in buffer (pH 7.4 / pH 4.5), % purity loss; format: physicochemical; conditions: 40° C. vs 5° C., 14 or 28 days; for Buffer stability pH 7.4 % purity loss: 100 mM phosphate buffer pH 7.4; for Buffer stability pH 4.5 % purity loss: 100 mM acetate buffer pH 4.5
Outline: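 LC-UV gave % loss after 14 or 28 days of storage at 5 °C or 40 °C. Samples were diluted supernatants from compound incubated 1 h at room temperature at 10 mg/mL target, in 100 mM acetate pH 4.5 or 100 mM phosphate pH 7.4.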

Sprague Dawley rats = assay: Effect on systolic blood pressure, telemetry in Sprague Dawley rats; format: in vivo, rat; conditions: 0.1 mg/kg SC; for Systolic blood pressure (Mean) % change from baseline, 8 h / Systolic blood pressure (Mean) % change from baseline, 12 h / Systolic blood pressure (Mean) % change from baseline, 24 h: n=2; for Duration of action: last time point with an effect on BP still observed
Outline: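 Values are % change from a 1 h pre-dose baseline in systolic pressure, tracked by telemetry for up to 48 hours after a single 0.1 mg/kg subcutaneous dose. Rats (Sprague Dawley, n=2 per peptide) carried aortic catheters and recovered at least 10 days post-surgery; duration of action marks the last time point still showing an effect.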

| Structure (SMILES) | pEC50 (human CRF2a receptor) | Emax (% I) (CFR1R receptor) | Buffer stability pH 7.4 % purity loss [3] | pEC50 (CFR1R receptor) | Buffer stability pH 4.5 % purity loss [3] | Systolic blood pressure (Mean) % change from baseline, 8 h (Sprague Dawley rats) | Systolic blood pressure (Mean) % change from baseline, 12 h (Sprague Dawley rats) | Systolic blood pressure (Mean) % change from baseline, 24 h (Sprague Dawley rats) | Duration of action (Sprague Dawley rats) | further results |
| --- | --- | --- | --- | --- | --- | --- | --- | --- | --- | --- |
| CC[C@H](C)[C@H](NC(C)=O)C(=O)N[C@H](C(=O)N[C@@H](CC(C)C)C(=O)N[C@@H](CO)C(=O)N[C@@H](CC(C)C)C(=O)N[C@@H](CC(=O)O)C(=O)N[C@@H](C(=O)N1CCC[C@H]1C(=O)N[C@H](C(=O)N[C@@H](CCCCN)C(=O)N[C@@H](CC(C)C)C(=O)N[C@@H](CCCCNC(=O)CC[C@H](NC(=O)CCCCCCCCCCCCCCCCCCC(=O)O)C(=O)O)C(=O)N[C@@H](CCCCN)C(=O)N[C@H](C(=O)N[C@@H](CC(C)C)C(=O)N[C@@H](CC(C)C)C(=O)N[C@@H](CCC(=O)O)C(=O)N[C@@H](CCC(N)=O)C(=O)N[C@@H](CCC(=O)O)C(=O)N[C@@H](CCCCN)C(=O)N[C@@H](CCC(N)=O)C(=O)N[C@@H](CCCCN)C(=O)N[C@@H](C)C(=O)N[C@@H](CCC(N)=O)C(=O)N[C@@H](CCCNC(=N)N)C(=O)N[C@@H](CCC(=O)O)C(=O)N[C@@H](CCC(N)=O)C(=O)N[C@@H](C)C(=O)N[C@@H](CCC(=O)O)C(=O)N[C@H](C(=O)N[C@@H](CC(N)=O)C(=O)NC(C)(C)C(=O)N[C@@H](CCC(N)=O)C(=O)N[C@H](C(=O)N[C@@H](CC(C)C)C(=O)N[C@@H](C)C(=O)N[C@@H](CCC(N)=O)C(=O)N[C@H](C(N)=O)C(C)C)[C@@H](C)CC)[C@@H](C)O)[C@@H](C)CC)[C@@H](C)CC)C(C)C)C(C)C [compound 212] (Ac-IVLSLD[dV]PIKLK([γGlu-C20 diacid])KILLEQEKQKAQREQAETN[Aib]QILAQV-NH2) | 9.96 | 41 % I | 0.3/Not Tested % | – | – | – | – | – | – | AUC(0-t) [1]: 4680 ng·h/mL; Cmax [1]: 154 ng/mL; Tmax [1]: 14 h; half-life [1]: 8 h; AUC(0-t) ([2]; IV, 0.025 mg/kg): 4840 ng·h/mL; half-life ([2]; IV, 0.025 mg/kg): 8 h |
| CC[C@H](C)[C@H](N)C(=O)N[C@H](C(=O)N[C@@H](CC(C)C)C(=O)N[C@@H](CO)C(=O)N[C@@H](CC(C)C)C(=O)N[C@@H](CC(=O)O)C(=O)N[C@H](C(=O)N1CCC[C@H]1C(=O)N[C@H](C(=O)N[C@@H](CCCCN)C(=O)N[C@@H](CC(C)C)C(=O)N[C@@H](CCCCNC(=O)COCCOCCNC(=O)COCCOCCNC(=O)CC[C@H](NC(=O)CCCCCCCCCCCCCCCCC(=O)O)C(=O)O)C(=O)N[C@@H](CCCCN)C(=O)N[C@H](C(=O)N[C@@H](CC(C)C)C(=O)N[C@@H](CC(C)C)C(=O)N[C@@H](CCC(=O)O)C(=O)N[C@@H](CCC(N)=O)C(=O)N[C@@H](CCC(=O)O)C(=O)N[C@@H](CCCCN)C(=O)N[C@@H](CCC(N)=O)C(=O)N[C@@H](CCCCN)C(=O)N[C@@H](CCCCN)C(=O)N[C@@H](CCC(N)=O)C(=O)N[C@@H](CCCNC(=N)N)C(=O)N[C@@H](CCC(=O)O)C(=O)N[C@@H](CCC(N)=O)C(=O)N[C@@H](C)C(=O)N[C@@H](CCC(=O)O)C(=O)N[C@H](C(=O)N[C@@H](CC(N)=O)C(=O)N[C@@H](CCCCN)C(=O)N[C@@H](CCC(N)=O)C(=O)N[C@H](C(=O)N[C@@H](CC(C)C)C(=O)N[C@@H](C)C(=O)N[C@@H](CCC(N)=O)C(=O)N[C@H](C(N)=O)C(C)C)[C@@H](C)CC)[C@@H](C)O)[C@@H](C)CC)[C@@H](C)CC)C(C)C)C(C)C [149 (Comp Y)] (H-IVLSLDVPIKLK([AEEA-AEEA-γGlu-C18 diacid])KILLEQEKQKKQREQAETNKQILAQV-NH2) | – | – | – | – | – | – | – | – | – | AUC(0-t) ([2]; IV, 0.1 mg/kg): 2760 ng·h/mL; half-life ([2]; IV, 0.1 mg/kg): 4.3 h; AUC(0-t) ([2]; SC, 1.0 mg/kg): 14500 ng·h/mL; Cmax ([2]; SC, 1.0 mg/kg): 1040 ng/mL; Tmax ([2]; SC, 1.0 mg/kg): 2 h; half-life ([2]; SC, 1.0 mg/kg): 4 h |
| CC[C@H](C)[C@H](NC)C(=O)N[C@H](C(=O)N[C@@H](CC(C)C)C(=O)N[C@@H](CO)C(=O)N[C@@H](CC(C)C)C(=O)N[C@@H](CC(=O)O)C(=O)N[C@@H](C(=O)N1CCC[C@H]1C(=O)N[C@H](C(=O)N[C@@H](CCCCN)C(=O)N[C@@H](CC(C)C)C(=O)N[C@@H](CCCCNC(=O)COCCOCCNC(=O)COCCOCCNC(=O)CC[C@H](NC(=O)CCCCCCCCCCCCCCCCC(=O)O)C(=O)O)C(=O)N[C@@H](CCCCN)C(=O)N[C@H](C(=O)N[C@@H](CC(C)C)C(=O)N[C@@H](CC(C)C)C(=O)N[C@@H](CCC(=O)O)C(=O)N[C@@H](CCC(N)=O)C(=O)N[C@@H](CCC(=O)O)C(=O)N[C@@H](CCCCN)C(=O)N[C@@H](CCC(N)=O)C(=O)N[C@@H](CCCCN)C(=O)N[C@@H](CCCCN)C(=O)N[C@@H](CCC(N)=O)C(=O)N[C@@H](CCCNC(=N)N)C(=O)N[C@@H](CCC(=O)O)C(=O)N[C@@H](CCC(N)=O)C(=O)N[C@@H](C)C(=O)N[C@@H](CCC(=O)O)C(=O)N[C@H](C(=O)N[C@@H](CC(N)=O)C(=O)N[C@@H](C)C(=O)N[C@@H](CCC(N)=O)C(=O)N[C@H](C(=O)N[C@@H](CC(C)C)C(=O)N[C@@H](C)C(=O)N[C@@H](CCC(N)=O)C(=O)N[C@H](C(N)=O)C(C)C)[C@@H](C)CC)[C@@H](C)O)[C@@H](C)CC)[C@@H](C)CC)C(C)C)C(C)C [compound 113] (H-[NMeI]VLSLD[dV]PIKLK([AEEA-AEEA-γGlu-C18 diacid])KILLEQEKQKKQREQAETNAQILAQV-NH2) | 9.46 | 6 % I | 14.7% | < 6.60 | 0% | −31% | −24% | −7% | >24 h | – |
| CC[C@H](C)[C@H](NC(=O)[C@H](CCC(N)=O)NC(=O)[C@H](CCCCN)NC(=O)[C@H](CC(N)=O)NC(=O)[C@@H](NC(=O)[C@H](CCC(=O)O)NC(=O)[C@H](C)NC(=O)[C@H](CCC(N)=O)NC(=O)[C@H](CCC(=O)O)NC(=O)[C@H](CCCNC(=N)N)NC(=O)[C@H](CCC(N)=O)NC(=O)[C@H](CCCCN)NC(=O)[C@H](CCCCN)NC(=O)[C@H](CCC(N)=O)NC(=O)[C@H](CCCCN)NC(=O)[C@H](CCC(=O)O)NC(=O)[C@H](CCC(N)=O)NC(=O)[C@H](CCC(=O)O)NC(=O)[C@H](CC(C)C)NC(=O)[C@H](CC(C)C)NC(=O)[C@@H](NC(=O)[C@H](CCCCN)NC(=O)[C@H](CCCCNC(=O)CC[C@H](NC(=O)CCCCCCCCCCCCCCC(=O)O)C(=O)O)NC(=O)[C@H](CC(C)C)NC(=O)[C@H](CCCCN)NC(=O)[C@@H](NC(=O)[C@@H]1CCCN1C(=O)[C@H](NC(=O)[C@H](CC(=O)O)NC(=O)[C@H](CC(C)C)NC(=O)[C@H](CO)NC(=O)[C@H](CC(C)C)NC(=O)[C@@H](NC(C)=O)C(C)C)C(C)C)[C@@H](C)CC)[C@@H](C)CC)[C@@H](C)O)C(=O)N[C@@H](CC(C)C)C(=O)N[C@@H](C)C(=O)N[C@@H](CCC(N)=O)C(=O)N[C@H](C(N)=O)C(C)C [compound 33] (Ac-VLSLD[dV]PIKLK([γGlu-C16 diacid])KILLEQEKQKKQREQAETNKQILAQV-NH2) | 9.33 | 13 % I | 18.8% | < 6.60 | 0% | −22% | −11% | 16% | 17 h | – |
